Here are results for 15 compounds from patent publication US20260199193A1, “POWDERY SOLID COSMETIC” (Shiseido Company, Ltd., priority 2022, published 2026).

Peptide text beside a SMILES is read from it.

The nature of this series: log P value (octanol/water partition coefficient). Format: physicochemical. The conditions noted are these: octanol / aqueous buffer solution at pH 7. The source says: The log P value of the nonionic water-soluble agent may be 1.8 or less, 1.5 or less, 1.3 or less, or 1.0 or less, and may be −4.0 or more, −3.8 or more, −3.5 or more, −3.3 or more, −3.0 or more, −2.7 or more, or −2.5 or more. The “log P value” herein is a parameter that represents the tendencies of partitioning of a substance into water and octanol, and is a value commonly used as an index to determine the degree of hydrophilicity or hydrophobicity of a substance. The smaller the log P value, the more hydrophilic the substance is meant to be. The larger the log P value, the more hydrophobic the substance is meant to be. The log P value may also be referred to as “octanol/water partition coefficient” according to the method of its calculation. The octanol/water partition coefficient can be determined by adding an agent into a flask containing octanol and an aqueous buffer solution at pH 7, shaking the flask, and then performing calculation according to the following Equation A based on the agent concentration in each phase: […]
Regarding `CC(O)CCO` (stereo not drawn) [1,3-butylene glycol], the logP was -0.4.
To `O=C1NCCN1CCO` [1-(2-hydroxyethyl)-2-imidazolidinone] belongs -1.4; to `CCOC1=C(O)[C@@H]([C@@H](O)CO)OC1=O` [2-O-ethyl ascorbic acid], -1.5; to `OCC(O)CO` [Glycerin], -1.8.
The compound `O=C1O[C@H]([C@@H](O)CO)C(O)=C1O` [L-ascorbic acid] showed a logP of 1.6.
Turning to `Nc1ncnc2c1ncn2[C@@H]1O[C@H](CO)[C@@H](O)[C@H]1O` [adenosine], the logP is -1.1.
Take `OC[C@H]1O[C@@H](Oc2ccc(O)cc2)[C@H](O)[C@@H](O)[C@@H]1O` [arbutin]: the logP was -0.7.
To `NCC(=O)NCC(=O)O` [glycylglycine] (H-Gly-Gly-OH) belongs -2.3; to `NC(=O)c1cccnc1` [niacinamide], -0.4.
In turn, `Cc1ncc(CO)c(CO)c1O` [pyridoxine] returned a logP of -0.8.
Compound `NCCS(=O)(=O)O` [taurine] displayed a logP of 1.4.
Regarding `NC[C@H]1CC[C@H](C(=O)O)CC1` [tranexamic acid, reference compound], the logP is -2.
The compound `OC[C@H]1O[C@H](O[C@H]2O[C@H](CO)[C@@H](O)[C@H](O)[C@H]2O)[C@H](O)[C@@H](O)[C@@H]1O` [trehalose] gave a logP of -1.7.
To `C[N+](C)(C)CC(=O)[O-]` [trimethylglycine] belongs 0.1.
Turning to `OC[C@@H](O)[C@H](O)[C@@H](O)CO` [xylitol], the logP was -2.5.
